Tested on: staphylococcus epidermidis
Details: in vitro
Text: One skilled in the are would be able to determine the best effective concentration of the active agent, such about 0.05%, about 1%, about 5%, about 10%, about 20%, or the like that should be deployed in a choosen configuration of a given device.
FIG. 10 is a conceptual diagram illustrating an in vitro testing system 160 with an active agent. Testing system 160 includes a culture plate 162, which serves as a test platform. […] A experimental tube 168 made at least in part of diffusible material is deployed in plate 162 proximate to microorganisms 166. The diffusible material is configured to pass the test agent to the indicator by diffusion. Experimental tube 168 may be wholly or partially embedded in growth medium 164, or may rest atop growth medium 164. Experimental tube 168 includes a lumen configured to receive a test active agent.
A pump 170 pumps the active agent from a reservoir 172 into the lumen of tube 168. A valve 174 may be closed to prevent leakage or other discharge of the active agent from tube 168, and an outlet reservoir 176 may be provided to collect fluid that discharges from tube 168. In some embodiments, pump 170, valve 174, or both are electronically controlled such that the quantity of active agent in tube 168 is known, such that the pressure of active agent in tube 168 is known, or such that the flow rate of active agent in tube 168 is known. When the active agent is an antibiotic, the effect of the antibiotic agent on microorganisms 166, if any, can be observed using conventional observational techniques, such as optical or microscopic examination. In this way, the effect of the active agent on microorganisms 166 serves as an indicator of diffusion of the test agent through the diffusible material.

**Q.** What does the source list for `OO` [hydrogen peroxide]?
**A.** zone of inhibition of bacterial growth (0.3 percent hydrogen peroxide concentration): about twenty-five; zone of inhibition of bacterial growth from the site of diffusion (thirty percent concentration hydrogen peroxide solution, diffusing through polyethylene 80 (PE80A) tubing): eighty; effectiveness against staphylococcus epidermidis (thirty percent concentration hydrogen peroxide solution): substantial effectiveness

Source: patent publication US20060095020A1, “Introduction of agent with medical device” (Medtronic, Inc., priority 2004, published 2006)
